Assay results published in patent US20200010489A1, “ZWITTERIONIC SILATRANE-BASED MATERIAL AND ANTIFOULING SUBSTRATE CONTAINING SAME” (National Central University, priority 2018, published 2020).

Assay: Chemical stability test of dry solid powders (FTIR, photographs)
Assay type: physicochemical
Conditions: RH=79%
Description: The dry solid powders of SBSi and SBSiT obtained above are placed in a laboratory environment (RH=79%, temperature=24° C.) for 24 hours, and the chemical stabilities of SBSi and SBSiT are examined by Fourier transform infrared spectroscopy (FTIR). Referring to FIG. 1A, signals is centered at 1050 and 1612 cm^−1 corresponding to Vas(SO3^−) and Vb(N(CH3)^+), respectively, so as to ensure that all samples have a sulfobetaine moiety.

CO[Si](CCC[N+](C)(C)CCCS(=O)(=O)[O-])(OC)OC [SBSi, sulfobetaine silane, reference compound]
FTIR spectra / absorption intensity after storage for 24 hours compared with before storage (dry solid powder, temperature=24° C.): significantly lower | appearance of solid after storage for 24 hours (hygroscopic properties) (moisture environment, 24° C.): clearly deliquescent
